Consider 35 compounds from patent US20200188361A1, “USE OF MITOCHONDRIAL ACTIVITY INHIBITORS FOR THE TREATMENT OF POOR PROGNOSIS ACUTE MYELOID LEUKEMIA” (UNIVERSITE DE MONTREAL, priority 2016, published 2020).

Experiment [1] relates to HOX-med/low AML patient cells. The experiment is described as follows: Primary chemical screen of 60 compounds, cell dose-response viability assay (CellTiterGlo, 6 days). The experiment is classed as cell-based, human. Conditions: read-out: MEAN EC50 HOX-med/low. On the procedure:
(§1) frozen AML mono-nucleated cells were thawed at 37° C. in Iscove's modified Dulbecco's medium (IMDM) containing 20% FBS and DNase I (100 μg/mL).
(§2) All powders were dissolved in DMSO and diluted in culture medium immediately before use. Final DMSO concentration in all conditions was 0.1%. The 60 compounds were purchased from various suppliers including Santa Cruz, Selleckchem, Calbiochem, AdooQ Bioscience, Cayman chemical and Synkinase.
(§3) Patient cells were seeded in 384-well plates at a density of 5,000 cells in 50 μL per well. In the initial screen, compounds were added to seeded cells in serial dilutions (10 dilutions, 1:3, starting from 10 μM or 20 μM), in duplicates. Cells treated with 0.1% DMSO without additional compound were used as negative controls. Viable cell counts per well were evaluated after 6 days of culture using the CellTiterGlo® assay (Promega®) according to the manufacturer's instruction.
(§4) Using high expression of HOXA9 and HOXA10 as a surrogate for the detection of HOX-network-high patient samples, the survival of HOX-high versus HOX-med/low specimens contacted with 60 inhibitors targeting receptor tyrosine kinases (RTK), members of the RAS and PI3K pathways, was assessed (FIG. 2A, Table 4).
For orientation: ATP-based viability assays read luminescence as a measure of living cells.

For experiment [2], the system named is HOX-high AML patient cells. The description is as above. The experiment is classed as cell-based, human. Conditions: for pEC50: read-out: MEAN EC50 HOX-high. The protocol:
as §1, §2, §3, §4

The mark [3] stands for this setting: Homo sapiens, 144 h, primary screen, mean over HOX-med/low patient specimens, 6 days culture, top concentration 10 μM or 20 μM.
[4] abbreviates: Homo sapiens, 144 h, primary screen, mean over HOX-high patient specimens, 6 days culture, top concentration 10 μM or 20 μM.
Setting [5] is: ratio of mean EC50 HOX-high to mean EC50 HOX-med/low.
Setting [6] is: primary screen, mean over HOX-med/low patient specimens, 6 days culture, top concentration 10 μM or 20 μM.
Where [7] appears, read: primary screen, mean over HOX-high patient specimens, 6 days culture, top concentration 10 μM or 20 μM.

pEC50: −log10 of the molar value. Where a name gives a salt, the structure may show the parent alone. Read-outs that look alike come from different tables or passages of the source. A value given as a limit tells only on which side of the number the result lay.

For `CC(=O)Nc1cccc(-n2c(=O)n(C3CC3)c(=O)c3c(Nc4ccc(I)cc4F)n(C)c(=O)c(C)c32)c1` [Trametinib GSK1120212, Trametinib], the pEC50 in experiment [1] (setting [3]) is 7.74; in experiment [2] (setting [4]) it was 7.60. Moreover, in experiment [2] (setting [5]), the “FOLD CHANGE High/Med-low” value was found to be 1.4.
The corresponding values for `Cn1cc(C2=C(c3cn(C4CCN(Cc5ccccn5)CC4)c4ccccc34)C(=O)NC2=O)c2ccccc21` [Enzastaurin] are less than 5.00, 5.01 and 1.0.
For the compound `CN(C)CCOc1ccc(-c2nc(-c3ccncc3)c(-c3ccc4c(c3)CC/C4=N\O)[nH]2)cc1` [SB590885], the pEC50 is 5.41 in experiment [1] (setting [3]) and 5.23 in experiment [2] (setting [4]). In addition, the “FOLD CHANGE High/Med-low” value in experiment [2] (setting [5]) is on record as 1.5.
The like results for `Cn1cnc2c(F)c(Nc3ccc(Br)cc3Cl)c(C(=O)NOCCO)cc21` [Selumetinib AZD6244., Selumetinib] were, in that order, 5.86, 5.91 and 0.9.
On to `NC(=O)N1CCC(CC(=O)N2CCC([C@H]3c4ncc(Br)cc4CCc4cc(Cl)cc(Br)c43)CC2)CC1` [Lonafarnib], for which the pEC50 is 5.44 in experiment [1] (setting [3]) and 5.60 in experiment [2] (setting [4]). The “FOLD CHANGE High/Med-low” value in experiment [2] (setting [5]) came out at 0.7.
With `CO[C@H]1C[C@@H]2CC[C@@H](C)[C@@](O)(O2)C(=O)C(=O)N2CCCC[C@H]2C(=O)O[C@H]([C@H](C)C[C@@H]2CC[C@@H](O)[C@H](OC)C2)CC(=O)[C@H](C)/C=C(\C)[C@@H](O)[C@@H](OC)C(=O)[C@H](C)C[C@H](C)/C=C/C=C/C=C/1C` [Rapamycin], the pEC50 was 6.02 in experiment [1] (setting [3]) and 5.72 in experiment [2] (setting [4]). For the same compound, the “FOLD CHANGE High/Med-low” value in experiment [2] (setting [5]) was 2.0.
Consider `O=c1cc(N2CCNCC2)oc2c(-c3ccccc3)cccc12` [LY303511], for which the pEC50 in experiment [1] (setting [3]) and in experiment [2] (setting [4]) was less than 5.00 each time.
With `Cc1[nH]c(/C=C2\C(=O)Nc3cc(-c4ccccc4)ccc32)c(C)c1CCC(=O)O` [PDGFR Tyrosine Kinase Inhibitor VII], the pEC50 in experiment [1] (setting [6]) is 5.55; in experiment [2] (setting [7]), 5.22. Also, the “FOLD CHANGE High/Med-low” value in experiment [2] (setting [5]) came out at 2.1.
The corresponding values for `Cc1ccc(C(=O)Nc2cccc(C(F)(F)F)c2)cc1Nc1nc(-c2cccnc2)nc2c1cnn2C` [NVPBHG712] are 5.28, 5.35 and 0.9.
Turning to `COc1cc2nccc(Oc3ccc(NC(=O)NC4CC4)c(Cl)c3)c2cc1C(N)=O` [E7080 Lenvatinib., Lenvatinib], the pEC50 is 5.48 in experiment [1] (setting [3]) and 5.14 in experiment [2] (setting [4]). In addition, the “FOLD CHANGE High/Med-low” value in experiment [2] (setting [5]) is reported as 2.2.
As for `CNc1cc2c(Nc3cccc(Br)c3)ncnc2cn1` [PD158780], the pEC50 in experiment [1] (setting [6]) was 5.11; in experiment [2] (setting [7]), 5.13. The “FOLD CHANGE High/Med-low” value in experiment [2] (setting [5]) is reported as 1.0.
For the compound `COc1cccc2cc(-c3nc([C@H]4CC[C@H](C(=O)O)CC4)n4ncnc(N)c34)[nH]c12` [OSI027, (1r,4r)-4-(4-amino-5-(7-methoxy-1H-indol-2-yl)imidazo[1,5-f][1,2,4]triazin-7-yl)cyclohexanecarboxylic acid], the pEC50 was 6.18 in experiment [1] (setting [3]) and 5.69 in experiment [2] (setting [4]). Besides, in experiment [2] (setting [5]), the “FOLD CHANGE High/Med-low” value is listed as 3.1.
The corresponding values for `Cc1ccc(NC(=O)c2ccc(CN3CCN(C)CC3)cc2)cc1Nc1nc(-c2cccnc2)cs1` [Masitinib] are 5.34, 5.15 and 1.5.
The like results for `CNC(=O)c1cccc(-c2ccc3c(N4CCOC[C@@H]4C)nc(N4CCOC[C@@H]4C)nc3n2)c1` [AZD2014, 3-(2,4-bis((S)-3-methylmorpholino)pyrido[2,3-d]pyrimidin-7-yl)-N-methylbenzamide] were, in that order, 6.66, 6.11 and 3.6.
As for `Nc1nc(Nc2ccc3c(c2)CCC(N2CCCC2)CC3)nn1-c1cc2c(nn1)-c1ccccc1CCC2` (centres unmarked) [R428], the pEC50 in experiment [1] (setting [6]) was 6.23; in experiment [2] (setting [7]), 6.31. For the same compound, the “FOLD CHANGE High/Med-low” value in experiment [2] (setting [5]) worked out at 0.8.
`Cc1cn(-c2cc(NC(=O)c3ccc(C)c(Nc4nccc(-c5cccnc5)n4)c3)cc(C(F)(F)F)c2)cn1` [Nilotinib]: the pEC50 in experiment [1] (setting [3]) is 5.42; in experiment [2] (setting [4]) it was 5.41. The “FOLD CHANGE High/Med-low” value in experiment [2] (setting [5]) is listed as 1.0.
The corresponding values for `Cc1nc(Nc2ncc(C(=O)Nc3c(C)cccc3Cl)s2)cc(N2CCN(CCO)CC2)n1` [Dasatinib] are 6.49, 6.11 and 2.4.
The like results for `CS(=O)(=O)N1CCN(Cc2cc3nc(-c4cccc5[nH]ncc45)nc(N4CCOCC4)c3s2)CC1` [GDC0941] were, in that order, 6.22, 5.96 and 1.8.
On to `CC(C)c1cc(/C=C(\C#N)C(=O)NCCCc2ccccc2)cc(C(C)C)c1O` [SU1498], for which the pEC50 in experiment [1] (setting [6]) and in experiment [2] (setting [7]) was 5.01 in each case. For the same compound, the “FOLD CHANGE High/Med-low” value in experiment [2] (setting [5]) is recorded as 1.0.
Turning to `Nc1cccc2c1CN(C1CCC(=O)NC1=O)C2=O` (centres unmarked) [Lenalidomide], the pEC50 in experiment [1] (setting [3]) is 5.00; in experiment [2] (setting [4]), 5.14. In addition, the “FOLD CHANGE High/Med-low” value in experiment [2] (setting [5]) is on record as 0.7.
The corresponding values for `c1cc(CN2CCCNCCNCCCNCC2)ccc1CN1CCCNCCNCCCNCC1` [AMD3100] are less than 5.00, 5.02 and 1.0.
The corresponding values for `C=CCNC1=C2C[C@@H](C)C[C@H](OC)[C@H](O)[C@@H](C)/C=C(\C)[C@H](OC(N)=O)[C@@H](OC)/C=C\C=C(/C)C(=O)NC(=CC1=O)C2=O` [Tanespimycin 17AAG, Tanespimycin] are 6.60, 6.50 and 1.3.
Regarding `COc1cc2nccc(Oc3ccc(NC(=O)Nc4ccc(F)cc4F)c(F)c3)c2cc1OC` [Ki8751], the figures for the pEC50 in experiment [1] (setting [6]) and in experiment [2] (setting [7]) were 6.11 and 6.07, respectively. In experiment [2] (setting [5]), the “FOLD CHANGE High/Med-low” value is 1.1.
Consider `NC1(c2ccc(-c3nc4ccn5c(=O)[nH]nc5c4cc3-c3ccccc3)cc2)CCC1` [MK2206], for which the pEC50 was 5.99 in experiment [1] (setting [3]) and 5.64 in experiment [2] (setting [4]). Also, in experiment [2] (setting [5]), the “FOLD CHANGE High/Med-low” value came out at 2.2.
The like results for `CCCS(=O)(=O)Nc1ccc(F)c(C(=O)c2c[nH]c3ncc(-c4ccc(Cl)cc4)cc23)c1F` [Vemurafenib] were, in that order, 5.07, 5.01 and 1.2.
For `C[S+]([O-])c1ccc(-c2nc(-c3ccc(F)cc3)c(-c3ccncc3)[nH]2)cc1` (centres unmarked) [SB.203580], the pEC50 in experiment [1] and in experiment [2] was less than 5.00 in each case. The “FOLD CHANGE High/Med-low” value in experiment [2] is 1.0.
In the case of `Cc1nc2cc3nc(-c4cccs4)cnc3cc2n1C` [AGL2043], the pEC50 in experiment [1] (setting [6]) is 5.08; in experiment [2] (setting [7]) it was 5.05. Also, in experiment [2] (setting [5]), the “FOLD CHANGE High/Med-low” value is listed as 1.1.
With `COc1ccc(-c2ccc3c(N4CCOC[C@@H]4C)nc(N4CCOC[C@@H]4C)nc3n2)cc1CO` [AZD8055, (5-(2,4-bis((S)-3-methylmorpholino)pyrido[2,3-d]pyrimidin-7-yl)-2-methoxyphenyl)methanol], the pEC50 in experiment [1] (setting [3]) is 7.16; in experiment [2] (setting [4]) it was 6.49. In addition, the “FOLD CHANGE High/Med-low” value in experiment [2] (setting [5]) was 4.7.
Consider `CNC(=O)c1cc(Oc2ccc(NC(=O)Nc3ccc(Cl)c(C(F)(F)F)c3)cc2)ccn1` [Sorafenib Tosylate], for which the pEC50 in experiment [1] (setting [3]) was 6.03; in experiment [2] (setting [4]), 5.96. Further, the “FOLD CHANGE High/Med-low” value in experiment [2] is recorded as 1.2.
As for `O=C(NOCC1CC1)c1ccc(F)c(F)c1Nc1ccc(I)cc1Cl` [CI1040 PD.184352.], the pEC50 was 5.56 in experiment [1] (setting [3]) and 5.61 in experiment [2] (setting [4]). Besides, the “FOLD CHANGE High/Med-low” value in experiment [2] (setting [5]) is reported as 0.9.
Take `C[C@]1(O)C[C@@H](c2nc(-c3ccc4ccc(-c5ccccc5)nc4c3)c3c(N)nccn32)C1` [OS1906 Linsitinib., Linsitinib]: the pEC50 in experiment [1] (setting [3]) is 5.41; in experiment [2] (setting [4]), 5.37. Further, in experiment [2] (setting [5]), the “FOLD CHANGE High/Med-low” value came out at 1.1.
For `COc1cc2ncnc(Nc3ccc(F)c(Cl)c3)c2cc1OCCCN1CCOCC1` [Gefitinib], the “FOLD CHANGE High/Med-low” value in experiment [2] (setting [5]) stood at 0.9.
`COc1ccc(Cl)c(Nc2nc3ccccc3nc2NS(=O)(=O)c2cccc(NC(=O)C(C)(C)N)c2)c1` [SAR245408 XL147]: the pEC50 in experiment [1] (setting [3]) and in experiment [2] (setting [4]) was less than 5.00 throughout.
For the compound `Nc1[nH]nc2nnc(-c3c(-c4ccccc4)nn4ccccc34)cc12` [ERK Inhibitor II FR180204], the pEC50 in experiment [1] (setting [6]) and in experiment [2] (setting [7]) was less than 5.00 throughout. Moreover, the “FOLD CHANGE High/Med-low” value in experiment [2] (setting [5]) stood at 1.0.
In the case of `CN1CCC(c2[nH]nc(-c3ccc(Cl)cc3)c2-c2ccncn2)CC1` [p38 MAP Kinase Inhibitor V], the pEC50 is 5.06 in experiment [1] (setting [6]) and 5.14 in experiment [2] (setting [7]). Also, the “FOLD CHANGE High/Med-low” value in experiment [2] (setting [5]) was found to be 0.8.
